From publication PMC12116762, “Topobexin targets the Topoisomerase II ATPase domain for beta isoform-selective inhibition and anthracycline cardioprotection” (Nature Communications, 2025)
Values joined by “and” are separate entries in the source; they are usually repeats but may differ in a detail not shown here. Identical values can stand only once.

Tests used:
Assay type in all cases: biochemical
recombinant human TOP2A [1] = molecular target: T1, recombinant human TOP2A (Homo sapiens, UniProt P11388); assay: DNA decatenation assay, recombinant TOP2A; settings: for Normalized % TOP2A activity, decatenation: independent replicates
T1 construct: Using recombinant full-length human TOP2A and TOP2B enzymes; YFP (N, cleaved yes); made in house; host or cells: HEK293F
Experimental: (§1) The human topoisomerase II decatenation assay was performed to determine the inhibitory effects of BNS-22 and new compounds as previously described with minor modifications[14],[36]. The assay was performed using recombinant human TOP2A or TOP2B generated using the HEK293F YFP-tag expression system as previously described[18],[19],[36]. Briefly, plasmids encoding YFP-TOP2A or YFP-TOP2B were transfected into HEK293F cells (Catalog number 11625019, Thermofisher Scientific), and TOP2 proteins were isolated from cell lysates by anti-YFP nanobody affinity chromatography. After elution by TEV protease cleavage, TOP2 proteins were FPLC purified by sequential cation exchange and size exclusion chromatography. Plasmid encoding TOP2B C88Y was generated by round-the-horn PCR mutagenesis and the sequence was verified by full-plasmid sequencing. Purified TOP2 proteins were stored in a storage buffer containing 20 mM HEPES pH 7.5, 500 mM NaCl, 0.5 mM TCEP, 25% (v/v) glycerol at -80 °C. For decatenation assays, purified TOP2 proteins were incubated with 200 ng kDNA (Topogen) in a reaction buffer containing 50 mM Tris−HCl (pH 8), 100 mM NaCl, 10 mM MgCl2, 0.5 mM DTT, 2 mM ATP, 0.1 mM tris(2-carboxyethyl)phosphine (TCEP), 5% (v/v) glycerol, 70 μg/mL bovine serum albumin, and 1/10 volume of each compound diluted in 10% DMSO (final DMSO concentration 1%) for 40 min at 37 °C. The reaction was then stopped by the addition of gel loading buffer (0.5 volumes of 60% (w/v) glycerol, 60 mM EDTA, 20 mM Tris−HCl (pH 7.5), 0.5 mg/mL bromophenol blue) and the samples were placed on ice. Reaction products were resolved by agarose gel electrophoresis in TBE buffer containing GelRed stain (Biotium). Gels were visualized using an iBright CL1000 (Thermofisher Scientific). Band intensities were quantified using FIJI, and the signal of the treated samples was normalized to the value of the control (untreated sample; 100%) present on the same gel. The normalized signal of three independent measurements was then expressed as mean ± SD. Each presented data point was obtained from distinct sample. Normalized values were plotted as a function of inhibitor concentration to determine IC50 values by nonlinear regression with variable slope using Prism 9 (GraphPad).

recombinant human TOP2B [2] = molecular target: T2, recombinant human TOP2B (Homo sapiens, UniProt Q02880); assay: DNA decatenation assay, recombinant TOP2B; settings: for Normalized % TOP2B activity, decatenation: independent replicates
T2 construct: Using recombinant full-length human TOP2A and TOP2B enzymes; YFP (N, cleaved yes); made in house; host or cells: HEK293F
Experimental: as §1

recombinant human TOP2A [3] = molecular target: T1, recombinant human TOP2A; assay: In vitro ATPase activity of TOP2A (coupled assay); settings: for Normalized % TOP2A activity, ATPase: independent replicates
Experimental: (§2) Topoisomerase proteins were diluted to 500 nM in storage buffer containing 20 mM HEPES pH 7.5, 500 mM NaCl, 0.5 mM TCEP, 25% glycerol, and 0.2 mg/mL BSA prior to use. A coupled assay was used to measure TOP2-catalyzed ATP hydrolysis in vitro[37] in Costar 96-well plates (Corning Incorporated). […] Reaction plates were pre-warmed to 30 °C for 5 min and ATP was added last to initiate the reaction. The reaction plate was placed in a CLARIOstarPlus plate reader (BMG Labtech) to measure NADH fluorescence at 30 °C every 30 s over 120 cycles using a 340-60 excitation filter and a 480-100 emission filter. Background fluorescence signals calculated from wells containing no ATP were subtracted from each measurement. The slope of NADH fluorescence decay in each well was calculated using the MARS software (BMG Labtech) and reaction wells that lacked topoisomerase inhibitor to account for photobleaching of NADH fluorescence served as background subtraction. Each presented data point was obtained from distinct sample. Values were normalized to untreated controls and plotted as a function of inhibitor concentration to determine IC50 values using Prism 9 (GraphPad).

recombinant human TOP2B [4] = molecular target: T2, recombinant human TOP2B; assay: In vitro ATPase activity of TOP2B (coupled assay); settings: for Normalized % TOP2B activity, ATPase: independent replicates
Experimental: as §2

[5] = enzyme expressed in HEK293F, n=3
[6] = TOP2A IC50 divided by TOP2B IC50

T2 sequence (Q02880 1-1621 isoform Q02880-2): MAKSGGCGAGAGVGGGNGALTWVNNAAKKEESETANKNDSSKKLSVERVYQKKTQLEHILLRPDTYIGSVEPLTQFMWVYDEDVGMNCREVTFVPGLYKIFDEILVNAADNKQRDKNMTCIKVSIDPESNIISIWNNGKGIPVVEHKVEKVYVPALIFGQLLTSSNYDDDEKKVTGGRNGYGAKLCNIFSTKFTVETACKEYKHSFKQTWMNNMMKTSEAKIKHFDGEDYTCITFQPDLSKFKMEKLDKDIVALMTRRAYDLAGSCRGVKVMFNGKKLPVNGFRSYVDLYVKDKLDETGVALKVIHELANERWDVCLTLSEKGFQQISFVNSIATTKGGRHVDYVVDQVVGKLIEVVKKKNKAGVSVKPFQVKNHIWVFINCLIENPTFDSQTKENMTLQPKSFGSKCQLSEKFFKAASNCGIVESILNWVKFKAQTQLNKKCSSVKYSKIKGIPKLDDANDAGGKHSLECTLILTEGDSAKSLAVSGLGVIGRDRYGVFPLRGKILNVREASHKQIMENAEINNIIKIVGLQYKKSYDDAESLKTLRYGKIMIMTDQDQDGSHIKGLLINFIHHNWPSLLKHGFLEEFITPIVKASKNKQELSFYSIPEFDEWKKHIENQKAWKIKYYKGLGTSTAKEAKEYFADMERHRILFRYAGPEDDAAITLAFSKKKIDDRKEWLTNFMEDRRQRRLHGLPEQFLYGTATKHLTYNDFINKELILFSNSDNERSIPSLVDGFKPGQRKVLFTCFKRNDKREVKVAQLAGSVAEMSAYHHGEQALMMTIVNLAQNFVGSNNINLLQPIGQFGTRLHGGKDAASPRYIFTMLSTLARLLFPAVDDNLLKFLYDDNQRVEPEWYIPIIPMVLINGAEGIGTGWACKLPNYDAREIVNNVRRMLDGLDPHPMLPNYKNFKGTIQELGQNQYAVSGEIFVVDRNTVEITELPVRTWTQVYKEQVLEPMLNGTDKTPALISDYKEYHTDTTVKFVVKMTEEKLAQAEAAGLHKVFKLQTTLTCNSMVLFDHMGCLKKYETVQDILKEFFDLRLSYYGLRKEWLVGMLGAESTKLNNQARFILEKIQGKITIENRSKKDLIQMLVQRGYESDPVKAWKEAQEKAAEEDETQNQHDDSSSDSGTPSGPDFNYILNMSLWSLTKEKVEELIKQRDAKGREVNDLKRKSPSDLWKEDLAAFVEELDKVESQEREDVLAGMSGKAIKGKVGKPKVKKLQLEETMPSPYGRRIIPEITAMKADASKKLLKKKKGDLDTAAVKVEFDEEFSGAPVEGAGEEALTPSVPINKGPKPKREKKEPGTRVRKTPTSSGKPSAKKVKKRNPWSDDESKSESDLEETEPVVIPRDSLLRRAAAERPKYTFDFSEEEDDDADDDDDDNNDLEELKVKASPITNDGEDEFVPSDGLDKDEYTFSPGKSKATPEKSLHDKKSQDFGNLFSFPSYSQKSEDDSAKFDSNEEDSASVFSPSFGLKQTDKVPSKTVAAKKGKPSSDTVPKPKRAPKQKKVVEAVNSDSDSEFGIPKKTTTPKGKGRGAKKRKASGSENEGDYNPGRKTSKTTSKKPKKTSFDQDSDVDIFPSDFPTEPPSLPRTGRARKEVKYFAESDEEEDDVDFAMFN
T1 sequence (P11388 whole entry): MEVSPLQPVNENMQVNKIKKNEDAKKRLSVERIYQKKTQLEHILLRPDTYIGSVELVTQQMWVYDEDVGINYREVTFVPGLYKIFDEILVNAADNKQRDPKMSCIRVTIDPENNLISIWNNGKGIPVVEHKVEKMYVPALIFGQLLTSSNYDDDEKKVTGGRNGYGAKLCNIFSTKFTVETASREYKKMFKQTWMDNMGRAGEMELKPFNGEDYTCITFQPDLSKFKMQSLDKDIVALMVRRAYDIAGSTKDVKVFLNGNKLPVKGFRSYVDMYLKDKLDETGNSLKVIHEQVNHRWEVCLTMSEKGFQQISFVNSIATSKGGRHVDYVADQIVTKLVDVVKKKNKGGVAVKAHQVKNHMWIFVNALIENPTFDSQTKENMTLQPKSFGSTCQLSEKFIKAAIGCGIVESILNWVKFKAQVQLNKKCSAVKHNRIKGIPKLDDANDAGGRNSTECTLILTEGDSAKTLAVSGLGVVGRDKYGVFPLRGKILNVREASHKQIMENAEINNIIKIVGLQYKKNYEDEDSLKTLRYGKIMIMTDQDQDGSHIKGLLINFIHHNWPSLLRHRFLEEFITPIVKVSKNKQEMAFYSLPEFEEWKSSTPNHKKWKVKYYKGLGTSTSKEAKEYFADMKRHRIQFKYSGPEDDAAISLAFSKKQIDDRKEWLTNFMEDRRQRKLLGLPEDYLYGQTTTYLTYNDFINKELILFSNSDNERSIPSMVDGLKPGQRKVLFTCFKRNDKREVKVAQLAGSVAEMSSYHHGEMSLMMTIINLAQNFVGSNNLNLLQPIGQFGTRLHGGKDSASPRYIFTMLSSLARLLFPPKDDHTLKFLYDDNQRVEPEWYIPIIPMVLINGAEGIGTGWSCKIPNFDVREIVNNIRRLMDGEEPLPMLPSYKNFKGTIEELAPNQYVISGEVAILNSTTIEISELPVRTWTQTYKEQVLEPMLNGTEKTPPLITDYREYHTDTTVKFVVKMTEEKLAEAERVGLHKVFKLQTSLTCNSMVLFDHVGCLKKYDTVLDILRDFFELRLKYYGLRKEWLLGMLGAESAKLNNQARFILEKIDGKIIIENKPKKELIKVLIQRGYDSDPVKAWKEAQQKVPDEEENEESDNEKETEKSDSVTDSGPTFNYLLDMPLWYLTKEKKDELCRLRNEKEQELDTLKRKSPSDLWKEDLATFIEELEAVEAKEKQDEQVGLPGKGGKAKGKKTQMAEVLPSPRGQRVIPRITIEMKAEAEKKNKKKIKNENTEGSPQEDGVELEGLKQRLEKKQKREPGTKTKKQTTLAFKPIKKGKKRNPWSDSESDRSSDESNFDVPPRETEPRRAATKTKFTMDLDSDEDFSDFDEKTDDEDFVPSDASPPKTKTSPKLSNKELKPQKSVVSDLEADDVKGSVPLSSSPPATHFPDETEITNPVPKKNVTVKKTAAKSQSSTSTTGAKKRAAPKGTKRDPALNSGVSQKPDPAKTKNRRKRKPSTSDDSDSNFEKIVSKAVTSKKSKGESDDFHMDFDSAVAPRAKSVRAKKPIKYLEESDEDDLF

Structure (SMILES): CCCc1cc(=O)oc2c(C(=O)N3CCCc4ccccc43)c(OC)cc(OC)c12 [BNS-22]
- Normalized % TOP2A activity, decatenation (recombinant human TOP2A [1]; 0.029 μM): 129.2% and 104.9% and 108.1%
- Normalized % TOP2A activity, decatenation (recombinant human TOP2A [1]; 0.059 μM): 115.3% and 107.3% and 87.18%
- Normalized % TOP2A activity, decatenation (recombinant human TOP2A [1]; 0.117 μM): 112.3% and 85.14% and 77.75%
- Normalized % TOP2A activity, decatenation (recombinant human TOP2A [1]; 0.234 μM): 113.6% and 104.1% and 111.1%
- Normalized % TOP2A activity, decatenation (recombinant human TOP2A [1]; 0.469 μM): 107.6% and 108.2% and 94.85%
- Normalized % TOP2A activity, decatenation (recombinant human TOP2A [1]; 0.938 μM): 110.1% and 99.05% and 142.1%
- Normalized % TOP2A activity, decatenation (recombinant human TOP2A [1]; 1.875 μM): 103.6% and 97.25% and 87.84%
- Normalized % TOP2A activity, decatenation (recombinant human TOP2A [1]; 3.750 μM): 92.41% and 84.64% and 69.95%
- Normalized % TOP2A activity, decatenation (recombinant human TOP2A [1]; 7.500 μM): 58.26% and 36.7% and 30.82%
- Normalized % TOP2A activity, decatenation (recombinant human TOP2A [1]; 15.000 μM): 19.52% and 10.3% and 12.12%
- Normalized % TOP2A activity, decatenation (recombinant human TOP2A [1]; 30.000 μM): 7.598% and 6.508% and 9.979%
- IC50 (recombinant human TOP2A [1]; [5]): 6.51 µM
- Normalized % TOP2B activity, decatenation (recombinant human TOP2B [2]; 0.029 μM): 110.4% and 102.5% and 86.14%
- Normalized % TOP2B activity, decatenation (recombinant human TOP2B [2]; 0.059 μM): 117.4% and 95.62% and 85.84%
- Normalized % TOP2B activity, decatenation (recombinant human TOP2B [2]; 0.117 μM): 120.4% and 94.08% and 92.01%
- Normalized % TOP2B activity, decatenation (recombinant human TOP2B [2]; 0.234 μM): 93.24% and 96.15% and 88.28%
- Normalized % TOP2B activity, decatenation (recombinant human TOP2B [2]; 0.469 μM): 119.4% and 102% and 86.29%
- Normalized % TOP2B activity, decatenation (recombinant human TOP2B [2]; 0.938 μM): 128.5% and 90.51% and 82.07%
- Normalized % TOP2B activity, decatenation (recombinant human TOP2B [2]; 1.875 μM): 113% and 60.36% and 75.6%
- Normalized % TOP2B activity, decatenation (recombinant human TOP2B [2]; 3.750 μM): 78.05% and 36.23% and 45.78%
- Normalized % TOP2B activity, decatenation (recombinant human TOP2B [2]; 7.500 μM): 36.99% and 17.69% and 24.26%
- Normalized % TOP2B activity, decatenation (recombinant human TOP2B [2]; 15.000 μM): 19.21% and 12.13% and 18.98%
- Normalized % TOP2B activity, decatenation (recombinant human TOP2B [2]; 30.000 μM): 18.37% and 9.163% and 14.61%
- SRbeta (SRTOP2B), decatenation activity (recombinant human TOP2B [2]; [6]): 1.6
- IC50 (recombinant human TOP2B [2]; [5]): 4 µM
- Normalized % TOP2A activity, ATPase (recombinant human TOP2A [3]; 0.03125 μM): 106.5339% and 96.82% and 104.97%
- Normalized % TOP2A activity, ATPase (recombinant human TOP2A [3]; 0.0625 μM): 99.93% and 96.81% and 104.654%
- Normalized % TOP2A activity, ATPase (recombinant human TOP2A [3]; 0.125 μM): 97.92% and 87.09% and 103.8686%
- Normalized % TOP2A activity, ATPase (recombinant human TOP2A [3]; 0.25 μM): 84.39% and 86.41% and 95.01%
- Normalized % TOP2A activity, ATPase (recombinant human TOP2A [3]; 0.5 μM): 68.7163% and 74.39% and 48.12%
- Normalized % TOP2A activity, ATPase (recombinant human TOP2A [3]; 1 μM): 44.71% and 47.48% and 56.42%
- Normalized % TOP2A activity, ATPase (recombinant human TOP2A [3]; 2 μM): 21.32% and 23.49% and 28.53%
- Normalized % TOP2A activity, ATPase (recombinant human TOP2A [3]; 4 μM): 7.817% and 9.176% and 12.94%
- Normalized % TOP2A activity, ATPase (recombinant human TOP2A [3]; 8 μM): 4.538% and 5.681% and 5.457%
- Normalized % TOP2A activity, ATPase (recombinant human TOP2A [3]; 16 μM): 3.325% and 1.312% and 2.254%
- Normalized % TOP2A activity, ATPase (recombinant human TOP2A [3]; 32 μM): 1.897% and 0.9839% and 2.191%
- IC50 (recombinant human TOP2A [3]; n=3): 1.27 µM
- Normalized % TOP2B activity, ATPase (recombinant human TOP2B [4]; 0.03125 μM): 92.74% and 92.18% and 98.3%
- Normalized % TOP2B activity, ATPase (recombinant human TOP2B [4]; 0.0625 μM): 92.24% and 94.66% and 102.1588%
- Normalized % TOP2B activity, ATPase (recombinant human TOP2B [4]; 0.125 μM): 100.3668% and 84.21% and 108.4459%
- Normalized % TOP2B activity, ATPase (recombinant human TOP2B [4]; 0.25 μM): 91.2179% and 87.24% and 97.62%
- Normalized % TOP2B activity, ATPase (recombinant human TOP2B [4]; 0.5 μM): 80.5% and 76.19% and 88.45%
- Normalized % TOP2B activity, ATPase (recombinant human TOP2B [4]; 1 μM): 58.26% and 48.84% and 67.64%
- Normalized % TOP2B activity, ATPase (recombinant human TOP2B [4]; 2 μM): 31.308% and 30.02% and 38.85%
- Normalized % TOP2B activity, ATPase (recombinant human TOP2B [4]; 4 μM): 10.88% and 8.636% and 13.51%
- Normalized % TOP2B activity, ATPase (recombinant human TOP2B [4]; 8 μM): 2.82% and 1.793% and 10.43%
- Normalized % TOP2B activity, ATPase (recombinant human TOP2B [4]; 16 μM): 1.695% and 1.187% and 0.8652%
- Normalized % TOP2B activity, ATPase (recombinant human TOP2B [4]; 32 μM): 0.8806% and 0.9028% and 0.7954%
- selectivity ratio in favour of TOP2B (SRTOP2B) (recombinant human TOP2B [4]; ATP hydrolysis and DNA decatenation): 1.5–1.6
- SRbeta (SRTOP2B), TOP2 ATPase activity (recombinant human TOP2B [4]; [6]): 1.5
- IC50 (recombinant human TOP2B [4]; n=3): 0.87 µM
